Test results reported in patent publication US9493451B2 (Bionomics Limited, priority 2011, dated 2016).

Target: T1, Kv1.3 (Homo sapiens, UniProt P22001)
T1 construct: expressed in transfected cells; host or cells: CHO (Kv1.3/CHO)
Assay: Electrophysiology: planar patch-clamp of Kv1.3 currents, IC50 from steady state current amplitude
Type: cell-based
Details: Kv1.3 electrophysiology, results according to Method D1, read-out: IC50 (Kv1.3 ephys steady state)
Procedure: The inhibition data shown for the compounds of the list below was calculated using the steady state current amplitude at the end of the depolarising pulse in patch clamp evaluations (as described in the Biology Protocols: 1. Electrophysiology).
Kv1.x currents were measured in Kv1.3/CHO or Kv1.5/CHO cells using a planar electrode version (Nanion Technologies GMBH) of the patch-clamp technique. Whole-cell Kv1.x current transients were evoked by 500 ms depolarising voltage pulses to +40 mV from a holding potential of −80 mV applied at 10 s intervals for Kv1.5 and at 30 s intervals for Kv1.3 to allow adequate time for recovery from inactivation. Cells were continuously bathed in a buffered saline solution containing (mM): 160 NaCl, 4.5 KCl, 2 CaCl2, 1 MgCl2, 5 glucose, 10 HEPES, pH 7.4, 290-310 mOsm·Kg^−1. The internal (pipette) solution contained (mM): 10 NaCl, 70 KF, 75 KCl, 2 MgCl2, 10 HEPES, 10 EGTA, pH 7.2, 290-310 mOsm·Kg^−1. Series resistance compensation (60-80%) was applied to cells in which the peak current amplitude exceeded 2 nA.
Compound Preparation and Potency Assessment
Compounds were initially dissolved in DMSO to 10 mM. After further dilution in DMSO, compounds were finally diluted in bath solution 1/200 (to give a final DMSO concentration of 0.5%) and applied directly to the recording chamber. Compounds were added at increasing concentrations allowing ample time for steady state block to be achieved between each concentration. Each compound was tested at 5-6 different concentrations on 2-3 cells. Compound IC50 values were determined by fitting the average normalised reduction of either the current integral or the steady state current amplitude at the end of the 500 ms depolarising pulse obtained at each compound concentration to the Hill equation. The IC50 data reported herein is based on the steady state calculation.

T1 sequence (P22001 whole entry): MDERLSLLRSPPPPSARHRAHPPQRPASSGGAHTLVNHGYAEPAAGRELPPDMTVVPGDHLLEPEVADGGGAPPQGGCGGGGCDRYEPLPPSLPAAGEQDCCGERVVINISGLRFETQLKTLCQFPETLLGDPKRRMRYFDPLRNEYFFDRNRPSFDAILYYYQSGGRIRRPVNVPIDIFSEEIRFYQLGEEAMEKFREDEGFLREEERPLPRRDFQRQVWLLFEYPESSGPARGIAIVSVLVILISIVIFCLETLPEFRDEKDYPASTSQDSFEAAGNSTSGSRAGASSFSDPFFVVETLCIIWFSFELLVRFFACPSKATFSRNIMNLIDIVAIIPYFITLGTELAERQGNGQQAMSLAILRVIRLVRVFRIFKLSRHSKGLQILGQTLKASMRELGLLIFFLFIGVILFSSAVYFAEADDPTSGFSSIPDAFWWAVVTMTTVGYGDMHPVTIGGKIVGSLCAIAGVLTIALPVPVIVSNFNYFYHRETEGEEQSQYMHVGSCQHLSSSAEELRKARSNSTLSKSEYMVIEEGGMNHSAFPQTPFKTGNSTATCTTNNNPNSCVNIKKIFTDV

| SMILES | IC50 [nM] |
| --- | --- |
| CN1CC(C(c2ccc(F)cc2)N(Cc2ncccc2F)C(=O)C2CC2c2ccc(F)cc2)C1 (stereo not drawn) [Example 155] | 200 to 1000 |
| COc1ccccc1[C@@H](C)N(Cc1ccccn1)C(=O)CCc1cccc(C(F)(F)F)c1 [Example 61, N-[(1R)-1-(2-methoxyphenyl)ethyl]-N-(pyridin-2-ylmethyl)-3-[3-(trifluoromethyl)phenyl]propanamide] | 50 to 200 |
| CCS(=O)(=O)c1ccc(C(C2CC2)N(Cc2ccc(F)cn2)C(=O)C2CC2c2ccc(F)cc2)cc1 (stereo not drawn) [Example 232] | 50 to 200 |
| N#Cc1cccc(C(C2CC2)N(Cc2ncccc2F)C(=O)C2CC2c2ccc(F)cc2)c1 (stereo not drawn) [Example 251] | 200 to 1000 |
| CC(C)(C(=O)N(Cc1ccccn1)C(c1ccc(OC(F)F)cc1)C1CC1)S(=O)(=O)c1ccc(F)cc1 (stereo not drawn) [Example 319] | 50 to 200 |
| CN1CCC(C(c2ccc(OC(F)F)cc2)N(Cc2ccc(F)cn2)C(=O)C2CC2c2ccc(F)cc2)CC1 (stereo not drawn) [Example 142] | 200 to 1000 |
| CN1CCC(C(c2ccc(F)cc2F)N(Cc2ccc(F)cn2)C(=O)CS(=O)(=O)c2ccc(F)cc2)CC1 (stereo not drawn) [Example 287] | 200 to 1000 |
| C[C@H](CC(=O)N(Cc1ccccn1)C(c1ccc(Cl)cc1)C1CC1)c1ccc(F)cc1 (single isomer, unassigned) [Example 5] | < 50 |
| O=C(C1CC1c1ccc(F)cc1F)N(Cc1cccnn1)C(c1ccc(OC(F)F)cc1)C1CC1 (stereo not drawn) [Example 182] | 50 to 200 |
| O=C(C1CC1c1ccc(F)cc1)N(Cc1ccc(F)cn1)C(c1ccc(S(=O)(=O)C2CC2)cc1)C1CC1 (stereo not drawn) [Example 250] | 200 to 1000 |
| CCS(=O)(=O)c1cccc(C(C2CC2)N(Cc2ccc(F)cn2)C(=O)C2CC2c2ccc(F)cc2)c1 (stereo not drawn) [Example 215] | 50 to 200 |
| CCC(c1ccc(S(C)(=O)=O)cc1)N(Cc1cccnn1)C(=O)C1CC1c1ccc(F)cc1 (stereo not drawn) [Example 125] | 1000 to 2000 |
| CN1CCC(C(c2ccc(F)cc2F)N(Cc2ccc(F)cn2)C(=O)C2CC2c2ccc(F)cc2)CC1 (stereo not drawn) [Example 144] | 200 to 1000 |
| O=C(C1CC1c1ccc(F)cc1)N(Cc1ncccc1F)C(c1ccc(F)cc1)C1CNC1 (stereo not drawn) [Example 157] | 200 to 1000 |
| O=C(CS(=O)(=O)c1ccccc1)N(Cc1cccnn1)C(c1ccc(OC(F)F)cc1)C1CC1 (stereo not drawn) [Example 306] | 200 to 1000 |
| O=C(CS(=O)(=O)c1ccc(F)cc1)N(Cc1ccccn1)C(c1ccccc1OCC(F)F)C1CC1 (stereo not drawn) [Example 329] | 50 to 200 |
| O=C(C1CC1c1ccc(F)cc1)N(Cc1cccnn1)C(c1ccc(F)cc1)C1CCOC1 (stereo not drawn) [Example 174] | 50 to 200 |
| CC(CC(=O)N(Cc1cccc[n+]1[O-])C(c1ccc(Cl)cc1)C1CC1)c1ccc(F)cc1 (stereo not drawn) [Example 272] | 50 to 200 |
| COc1ccc(CN(C(=O)CC(C)S(=O)(=O)c2ccc(F)cc2)C(c2ccc(OC(F)F)cc2)C2CC2)cn1 (stereo not drawn) [Example 88, N-{cyclopropyl[4-(difluoromethoxy)phenyl]methyl}-3-[(4-fluorophenyl)sulfonyl]-N-[(6-methoxypyridin-3-yl)methyl]butanamide] | 50 to 200 |
| O=C([C@@H]1C[C@H]1c1ccc(F)cc1)N(Cc1cccnn1)[C@H](c1ccc(OC(F)F)cc1)C1CC1 [Example 98, (1R,2R)-2-(4-Fluoro-phenyl)-cyclopropanecarboxylic acid [(S)-cyclopropyl-(4-difluoromethoxy-phenyl)-methyl]-pyridazin-3-ylmethyl-amide] | 50 to 200 |
| O=C(CC1(c2ccc(F)cc2)CC1)N(Cc1cccnn1)[C@@H](c1ccc(OC(F)F)cc1)C1CC1 [Example 89, N—{(R)-cyclopropyl[4-(difluoromethoxy)phenyl]methyl}-2-[1-(4-fluorophenyl)cyclopropyl]-N-(pyridazin-3-ylmethyl)acetamide] | < 50 |
| C[C@@H](CC(=O)N(Cc1ccccn1)C1(c2cccc(Br)c2)CC1)c1ccc(F)cc1 (single isomer, unassigned) [Example 96] | 50 to 200 |
| O=C(CS(=O)(=O)c1ccc(F)cc1)N(Cc1ccc(F)nc1)C(c1ccc(Cl)cc1)C1CC1 (stereo not drawn) [Example 291] | 50 to 200 |

| SMILES | IC50 [nM] |
| --- | --- |
| CCS(=O)(=O)c1ccc(C(C2CC2)N(Cc2ccc(F)cn2)C(=O)C2CC2c2ccc(F)cc2F)cc1 (stereo not drawn) [Example 229] | 50 to 200 |
| COc1ccccc1[C@H](C)N(Cc1ccccn1)C(=O)CCc1ccc(F)cc1 [Example 55, 3-(4-fluorophenyl)-N-[(1S)-1-(2-methoxyphenyl)ethyl]-N-(pyridin-2-ylmethyl)propanamide] | 200 to 1000 |
| CCC(c1ccc(S(=O)(=O)CC)cc1)N(Cc1ccc(C(F)(F)F)nc1)C(=O)C1CC1c1ccc(F)cc1F (stereo not drawn) [Example 119] | 50 to 200 |
| CCC(c1ccc(S(C)(=O)=O)cc1)N(Cc1ccc(C(F)(F)F)nc1)C(=O)C1CC1c1ccc(F)cc1 (stereo not drawn) [Example 120] | 200 to 1000 |
| O=C(CS(=O)(=O)c1ccc(F)cc1)N(Cc1ccc(C(F)(F)F)nc1)C(c1ccc(OC(F)F)cc1)C1CC1 (stereo not drawn) [Example 313] | 50 to 200 |
| CC(C)S(=O)(=O)c1cccc(C(C2CC2)N(Cc2cccnn2)C(=O)C2CC2c2ccc(F)cc2)c1 (stereo not drawn) [Example 241] | 200 to 1000 |
| CC(CC(=O)N(Cc1ccc(F)cn1)C(c1ccc(F)cc1)C1CCCO1)c1ccc(F)cc1 (stereo not drawn) [Example 270] | 50 to 200 |
| O=C(C1CC1c1ccc(F)c(F)c1)N(Cc1cccnn1)C(c1ccc(OC(F)F)cc1)C1CC1 (stereo not drawn) [Example 180] | 50 to 200 |
| CC(C)S(=O)(=O)c1ccc(C(C2CC2)N(Cc2ncccc2F)C(=O)C2CC2c2ccc(F)cc2)cc1 (stereo not drawn) [Example 235] | 200 to 1000 |
| O=C(C1CC1c1ccc(F)cc1)N(Cc1ccccn1)C(c1ccc(Cl)cc1)C1CC1 (stereo not drawn) [Example 10, N-[(4-chlorophenyl)(cyclopropyl)methyl]-2-(4-fluorophenyl)-N-(pyridin-2-ylmethyl)cyclopropanecarboxamide] | 50 to 200 |
| CN1CC(C(c2ccc(OC(F)F)cc2)N(Cc2ccc(F)cn2)C(=O)C2CC2c2ccc(F)cc2)C1 (stereo not drawn) [Example 154] | 200 to 1000 |
| O=C(C1CC1c1ccc(F)cc1)N(Cc1ccc(F)cn1)C(c1ccc(F)cc1)C1CNC1 (stereo not drawn) [Example 158] | 200 to 1000 |
| O=C(CS(=O)(=O)c1ccccc1)N(Cc1ccc(C(F)(F)F)nc1)C(c1ccc(F)cc1)C1CCCO1 (stereo not drawn) [Example 282] | 50 to 200 |
| O=C(CS(=O)(=O)c1cccc(C(F)(F)F)c1)N(Cc1cccnn1)C(c1ccc(OC(F)F)cc1)C1CC1 (stereo not drawn) [Example 307] | 50 to 200 |
| CCS(=O)(=O)c1cccc(C(C2CC2)N(Cc2ccc(F)cn2)C(=O)CC(C)c2ccccc2C(F)(F)F)c1 (stereo not drawn) [Example 265] | 50 to 200 |
| O=C(CS(=O)(=O)c1ccc(F)cc1)N(Cc1ccc(C(F)(F)F)nc1)C(c1ccccc1OCC(F)F)C1CC1 (stereo not drawn) [Example 330] | 50 to 200 |
| CN1CCC(C(c2cccc(C(F)(F)F)c2)N(Cc2cncc(F)c2)C(=O)C2CC2c2ccc(F)cc2)CC1 (stereo not drawn) [Example 148] | 200 to 1000 |
| CN1CC(C(c2ccc(OC(F)F)cc2)N(Cc2ncccc2F)C(=O)C2CC2c2ccc(F)cc2)C1 (stereo not drawn) [Example 151] | 200 to 1000 |
| CC(c1ccc(S(C)(=O)=O)cc1)N(Cc1ccc(C(F)(F)F)nc1)C(=O)C(C)(C)S(=O)(=O)c1ccccc1 (stereo not drawn) [Example 288] | 1000 to 2000 |
| Cn1ccnc1CN(C(=O)C1CC1c1ccc(F)cc1)C(c1ccc(OC(F)F)cc1)C1CC1 (stereo not drawn) [Example 187] | 200 to 1000 |
| CC(C)(C(=O)N(Cc1ccccn1)C(c1ccc(OC(F)F)cc1)C1CC1)S(=O)(=O)c1ccc(F)cc1 (stereo not drawn) [Example 318] | 50 to 200 |
| O=C(CS(=O)(=O)c1ccc(F)cc1)N(C1CCOCC1)C(c1ccc(OC(F)F)cc1)C1CC1 (stereo not drawn) [Example 317] | 200 to 1000 |
